Measured values taken from US5840485A, “Topologically segregated, encoded solid phase libraries” (priority 1994, dated 1998).
“Also recorded” adds a separate entry of the source. Read-outs that look alike come from different tables or passages of the source.

Columns and labels:
[1] = system: anti-β-endorphin monoclonal antibody (clone 3-E 7); test: Screening of encoded peptide library XXXX-Lys(XXXX)-Lys(ZZ) on beads; assay type: binding; settings: Table 3, two cycles of Edman degradation
Protocol: After thorough washing, streptavidin-alkaline phosphatase was added. One hour later, the beads were washed, substrate was added, and color development proceeded as described above. The color beads were then physically isolated and subjected to sequencing. In these two experiments, only the darkest beads were sequenced.

[2] = system: anti-β-endorphin antibody; test: Binding to peptide beads (staining) with or without chymotrypsin treatment / surface synthesis
Protocol: (§1) Beads were carefully washed and transferred to 0.1M ammonium carbonate buffer of pH 7.7. Chymotrypsin (1 mg) was added and suspension was shaken at 37° C. for 20 hours. The same treatment was repeated twice for 4 hours.
(§2) Beads were carefully washed and prepared for staining with anti-β-endorphin as described previously.
(§3) Treated beads were tested for binding to anti-β-endorphin and streptavidin.

chymotrypsin = test: Chymotrypsin cleavage of bead-bound substrates; assay type: biochemical; settings: for decrease in the total amount of peptide on bead after chymotrypsin / cleavage by chymotrypsin (substrate quality): bead-bound peptide
Protocol: as §1
Resin was washed and transferred to the 0.1M ammonium carbonate buffer pH 7.7. Chymotrypsin treatment was performed in the same way as described above.
A simple substrate for chymotrypsin, Boc-Phe, was synthesized on all available amino groups of the solid carrier.

[3] = system: anti-β-endorphin antibody; test: Antibody detection of model test compounds on non-sequentially coded beads; assay type: binding; settings: test compound on bead surface, coding molecule inside
From the text: The test compound sequences prepared were Tyr-Gly-Ala-Phe SEQ ID NO:12 and Phe-Gly-Ala-Phe SEQ ID NO:13, coded by doublets of amino acids (see Scheme XIC), and Tyr-Gly-Gly-Phe-Leu SEQ ID NO:14 and Phe(Cl)-Gly-Gly-Phe-Leu SEQ ID NO:15 (encoded by coding by Scheme XIB). […] Moreover, the fidelity and coding could be confirmed by directly sequencing the test peptides.
Therefore, the synthesis was not performed in successive steps of coupling test AA subunit followed by a pair of coding subunits, but rather using the more convenient scheme described below. […] The mixture of amino acids coding for phenylalanine in position four of the test compound structure (Boc-Sar and Boc-Asp(OBzl) in a molar ratio of 1:1 (reflecting their relatively equivalent coupling reactivity which had previously been determined experimentally) was coupled using DIC and HOBT (3 eq each). The reaction was monitored by bromophenol blue method. The resin was washed by DMF (5×) and the Dde group was deprotected by 2% hydrazine hydrate in DMF (10 min). The resin was washed by DMF (5×), 2% HOBT in DMF, and Fmoc-Lys(Dde) was coupled, and Fmoc group removed. The procedure of coupling mixtures of Boc amino acids and Fmoc-Lys(Dde) was repeated two times (coupling the coding subunit mixtures of Ile and Val (2:1) and Lys(ClZ) and Glu(OBzl) (1.5:1)) and after deprotection of the Dde group, Boc-Lys(Fmoc) was coupled to the resin in both syringes. […]

anti-β-endorphin = test: Semi-quantitative staining of peptide-beads blocked with polyglutamic acid, biotinyl-anti-β-endorphin followed by streptavidin-AP; assay type: binding
Protocol: TentaGel amide AM resin (0.3 meq/gram substitution) was hydrated in H2 O for several hours, and washed with 0.1M 2-[N-morpholino]ethanesulfonic acid (MES) buffer, pH 5.7. A varying amount (0 to 10 mg) of polyglutamic acid (Mr 30,000, Sigma Chemical) was added to each of the 0.2 ml of settled bead. Sixty mg of 1-ethyl-3-(3-dimethylamino-propyl) carbodiimide-HCl (EDC) was then added to each tube. The reaction mixtures were rocked gently overnight. The beads were then washed into double distilled (dd) H2 O and 0.24 mmol ethanolamine plus 60 mg EDC in MES buffer were added to each sample. After 4 hours of gentle shaking, the resin was washed extensively with dd H2 O. The resin was then lyophilized to dryness. The treated resin was swollen in dimethylformamide (DMF). Using Fmoc chemistry, the peptide, […] SEQ ID NO:11 was synthesized on each of the treated resin samples using standard techniques. The N-terminal Fmoc group and the side chain protected groups were removed with piperidine and trifluoracetic acid as described (Lam et al., 1991, Nature 354: 82-84).

streptavidin [4] = target: T1, streptavidin (Streptomyces avidinii, UniProt P22629); test: Screening of encoded peptide library XXXX-Lys(XXXX)-Lys(ZZ) on beads; assay type: binding; settings: Table 3, two cycles of Edman degradation
Protocol: The peptide library was screened according to published procedures (Lam and Lebl, 1992, Immunomethods 1: 11-15). The peptide beads were first mixed with double-distilled water to remove the DMF. After extensive washing with PBS (137 mM NaCl, 2.7 mM KCl, 4.3 mM Na2 HPO4, 1.4 mM KH2 PO4, pH 7.2), the beads were coated with 0.05% gelatin (w/v) to block any nonspecific binding. The beads were then incubated with a 1:100,000 dilution of streptavidin-alkaline phosphatase at 2 mg/ml (Pierce; Rockford, Ill.) in 2× PBS/Tween/gelatin (2× PBS, 0.1% Tween-20 (v/v), and 0.05% gelatin (w/v)). The beads were then thoroughly washed with TBS (137 mM NaCl, 2.7 mM KCl, 25 mM Tris base, pH 7.4) and the standard substrate 5-bromo-4-chloro-3-indolyl phosphate was added. The beads, together with the substrate, were then transferred to petri dishes for color development. After 30 minutes to 1 hour, the colored beads were collected, with the aid of a micropipette, washed with 6M guanidine hydrochloride, pH 1.0, and subjected to sequencing as described.
This library was used in the screening against two model targets, anti-β-endorphin monoclonal antibody, and streptavidin. […]

streptavidin [5] = target: T1, streptavidin; settings: for activity with streptavidin after chymotrypsin: in words
Protocol: as §1, §2, §3

[6] = two-peptide beads, surface deprotected by chymotrypsin

T1 sequence (P22629 25-183): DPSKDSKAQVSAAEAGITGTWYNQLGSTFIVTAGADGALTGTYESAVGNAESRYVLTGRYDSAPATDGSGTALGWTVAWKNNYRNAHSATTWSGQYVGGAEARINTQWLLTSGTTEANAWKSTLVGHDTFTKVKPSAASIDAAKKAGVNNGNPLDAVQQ

## YGPF: test peptide sequence deduced from positive beads of the encoded library
[1]
  Target of positive bead, deduced sequence: anti-β-endorphin

## YGGFL
[2]; after chymotrypsin, in words
  binding activity to anti-β-endorphin antibody after chymotrypsin: completely lost binding activity
[2]; [6]
  staining / reaction with anti-β-endorphin of beads with YGGFL on surface and second peptide inside: indistinguishable from staining of the beads containing only YGGFL sequence; also recorded: positive reaction; also recorded: available on the surface of the bead for the interaction with the relevant acceptor
chymotrypsin
  decrease in the total amount of peptide on bead after chymotrypsin: minimal

## Tyr-Gly-Ala-Phe (YGAF)
[3]
  detection by anti-β-endorphin antibody: positive
[3]; listed as Tyr-Gly-Ala-Phe
  detection by anti-β-endorphin antibody: can be detected

## YGGFLGGG [peptide synthesized on polyglutamic acid treated resin]
anti-β-endorphin; blocked resin, in words
  staining of polyglutamic acid-blocked resin: stained only weakly
anti-β-endorphin; polyglutamic acid 10 mg per 0.2 ml resin
  Labeling with biotinyl-anti-β-endorphin followed by streptavidin-AP: trace

## LHFQF: LHFQF SEQ ID NO:10 was a poor substrate for chymotrypsin
chymotrypsin
  cleavage by chymotrypsin (substrate quality): poor substrate

## HPQF: test peptide sequence deduced from positive beads of the encoded library
Streptavidin [4]
  Target of positive bead, deduced sequence: streptavidin positive

## CC(C)(C)OC(=O)N[C@@H](Cc1ccccc1)C(=O)O [Boc-Phe]
chymotrypsin; Boc-Phe on all available amino groups of carrier, various conditions
  release of Boc-Phe by chymotrypsin: ~1.1%

## YGGF: test peptide sequence deduced from positive beads of the encoded library
[1]
  Target of positive bead, deduced sequence: anti-β-endorphin

## LHPQF
Streptavidin [5]; [6]
  reaction with streptavidin of beads with YGGFL on surface and LHPQF inside: positive reaction; also recorded: still available for interaction with streptavidin

## LHPQFYG [model peptide synthesized on TentaGel AM with linker β-Ala-Gly-β-Ala-Gly]
Streptavidin [5]
  activity with streptavidin after chymotrypsin: completely abrogated
Streptavidin [5]; listed as LHPQF-YG
  activity with streptavidin after chymotrypsin: completely lost activity
chymotrypsin
  cleavage by chymotrypsin (substrate quality): proceeded efficiently
  decrease in the total amount of peptide on bead after chymotrypsin: minimal

## Phe-Gly-Ala-Phe (FGAF)
[3]
  detection by anti-β-endorphin antibody: negative control
